What is called pEC50 is −log10 of the EC50, conventionally taken in molar units.

Molecules are shown by their SMILES. pEC50: −log10 of the molar value.

The values below come from patent US10323060B2, “Benzoic acid derivatives of bile acid as FXR/TGR5 agonists and methods of use thereof” (ENANTA PHARMACEUTICALS, INC., priority 2016, dated 2019).

The target of the assay is human FXR (NR1H4) (Homo sapiens (Human), UniProt Q96RI1). The assay is described as follows: Human FXR (NR1H4) Assay (luciferase reporter, Indigo Bioscience kit). As to Efficacy (%): efficacy normalized to CDCA set as 100%. Type of assay: cell-based. The settings on record: for pEC50: FXR agonistic potency range, CHO reporter cells expressing human NR1H4, 22 hours incubation; for Emax: read-out: Efficacy (%). From the text:
Assays Human FXR (NR1H4) Assay
Determination of a ligand mediated Gal4 promoter driven transactivation to quantify ligand binding mediated activation of FXR. FXR Reporter Assay kit purchased from Indigo Bioscience (Catalogue number: IB00601) to determine the potency and efficacy of compound developed by Enanta that can induce FXR activation. The principle application of this reporter assay system is to quantify functional activity of human FXR. The assay utilizes non-human mammalian cells, CHO (Chinese hamster ovary) cells engineered to express human NR1H4 protein (referred to as FXR). Reporter cells also incorporate the cDNA encoding beetle luciferase which catalyzes the substrates and yields photon emission. Luminescence intensity of the reaction is quantified using a plate-reading luminometer, Envision. Reporter Cells include the luciferase reporter gene functionally linked to an FXR responsive promoter. Thus, quantifying changes in luciferase expression in the treated reporter cells provides a sensitive surrogate measure of the changes in FXR activity. […] The assay is according to the manufacturer's instructions. In brief, the assay was performed in white, 96 well plates using final volume of 100 ul containing cells with different doses of compounds. Retrieve Reporter Cells from −80° C. storage. Perform a rapid thaw of the frozen cells by transferring a 10 ml volume of 37° C. cell recovery medium into the tube of frozen cells. Recap the tube of Reporter Cells and immediately place it in a 37° C. water bath for 5-10 minutes. Retrieve the tube of Reporter Cell Suspension from the water bath. Sanitize the outside surface of the tube with a 70% alcohol swab, and then transfer it into the cell culture hood. Dispense 90 μl of cell suspension into each well of the 96-well Assay Plate. Transfer the plate into 37° C. incubator, allowing the cells adherent to the bottom of the well. Dilute compounds in Dilution Plate (DP), and administrate to cells at Assay Plate (AP). DMSO content of the samples was kept at 0.2%. Cells were incubated for additional 22 hours before luciferase activities were measured. Thirty minutes before intending to quantify FXR activity, remove Detection Substrate and Detection Buffer from the refrigerator and place them in a low-light area so that they may equilibrate to room temperature. Remove the plate's lid and discard all media contents by ejecting it into an appropriate waste container. Gently tap the inverted plate onto a clean absorbent paper towel to remove residual droplets. Cells will remain tightly adhered to well bottoms. Add 100 μl of luciferase detection reagent to each well of the assay plate. Allow the assay plate to rest at room temperature for at least 5 minutes following the addition of LDR. Set the instrument (Envision) to perform a single 5 second “plate shake” prior to reading the first assay well. Read time may be 0.5 second (500 mSec) per well.

Sequence of human FXR (NR1H4) (Q96RI1 whole entry): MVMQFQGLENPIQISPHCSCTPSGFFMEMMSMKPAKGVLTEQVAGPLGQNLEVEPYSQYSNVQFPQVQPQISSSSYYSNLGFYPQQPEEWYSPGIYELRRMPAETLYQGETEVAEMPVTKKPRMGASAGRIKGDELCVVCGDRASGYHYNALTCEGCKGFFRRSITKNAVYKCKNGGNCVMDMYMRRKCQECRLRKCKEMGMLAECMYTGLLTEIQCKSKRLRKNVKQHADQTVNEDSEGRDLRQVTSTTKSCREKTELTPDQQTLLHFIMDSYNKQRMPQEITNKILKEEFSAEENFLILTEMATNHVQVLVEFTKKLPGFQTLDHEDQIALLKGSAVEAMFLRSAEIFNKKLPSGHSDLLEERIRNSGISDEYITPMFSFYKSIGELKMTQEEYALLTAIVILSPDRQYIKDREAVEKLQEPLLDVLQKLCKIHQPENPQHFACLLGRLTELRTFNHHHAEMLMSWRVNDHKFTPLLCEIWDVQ

For the compound `CC[C@H]1[C@@H](O)[C@@H]2[C@H](CC[C@]3(C)[C@@H]([C@H](C)C/C=C/c4cnccc4C(=O)OC)CC[C@@H]23)[C@@]2(C)CC[C@@H](O)C[C@@H]12` [Example 27], the pEC50 is 5.00 to 6.00 and the Emax was determined as 296%.
Regarding `CC[C@H]1[C@@H](O)[C@@H]2[C@H](CC[C@]3(C)[C@@H]([C@H](C)C/C=C/c4cnccc4C(=O)O)CC[C@@H]23)[C@@]2(C)CC[C@@H](O)C[C@@H]12` [Example 28], the pEC50 was 6.00 to 7.00 and the Emax was 300%.
The like results for `CC[C@H]1[C@@H](O)[C@@H]2[C@H](CC[C@]3(C)[C@@H]([C@H](C)C/C=C/c4ccccc4C#N)CC[C@@H]23)[C@@]2(C)CC[C@@H](O)C[C@@H]12` [Example 29] were, in that order, 5.00 to 6.00 and 210%.
For `CC[C@H]1[C@@H](O)[C@@H]2[C@H](CC[C@]3(C)[C@@H]([C@H](C)C/C=C/c4ccccc4-c4nnn[nH]4)CC[C@@H]23)[C@@]2(C)CC[C@@H](O)C[C@@H]12` [Example 30] the same measures were 6.00 to 7.00 and 332%.
For `CC[C@H]1[C@@H](O)[C@@H]2[C@H](CC[C@]3(C)[C@@H]([C@H](C)Cc4nc5cccc(C(=O)OC)c5[nH]4)CC[C@@H]23)[C@@]2(C)CC[C@@H](O)C[C@@H]12` [Example 31] the same measures were 5.00 to 6.00 and 34%.
In the case of `CC[C@H]1[C@@H](O)[C@@H]2[C@H](CC[C@]3(C)[C@@H]([C@H](C)Cc4nc5cccc(C(=O)O)c5[nH]4)CC[C@@H]23)[C@@]2(C)CC[C@@H](O)C[C@@H]12` [Example 32], the negative-log EC50 (pEC50) is 5.00 to 6.00 and the Emax amounted to 24%.
The like results for `CC[C@H]1[C@@H](O)[C@@H]2[C@H](CC[C@]3(C)[C@@H]([C@H](C)CC4CC4c4cccc(C(=O)O)c4)CC[C@@H]23)[C@@]2(C)CC[C@@H](O)C[C@@H]12` (stereo partly drawn) [Example 33] were, in that order, 5.00 to 6.00 and 229%.
For the compound `CC[C@H]1[C@@H](O)[C@@H]2[C@H](CC[C@]3(C)[C@@H]([C@H](C)CC4CC4c4ccc(C(=O)O)cc4)CC[C@@H]23)[C@@]2(C)CC[C@@H](O)C[C@@H]12` (stereo partly drawn) [Example 34], the pEC50 is 5.00 to 6.00 and the Emax was 195%.
The like results for `CC[C@H]1[C@@H](O)[C@@H]2[C@H](CC[C@]3(C)[C@@H]([C@H](C)CCOc4ccc(F)cc4C(=O)O)CC[C@@H]23)[C@@]2(C)CC[C@@H](O)C[C@@H]12` [Example 35] were, in that order, 6.00 to 7.00 and 203%.
